Converted amounts (≈) assume the structure as drawn.
Tested on: up to 32 different microorganisms
Assay: in vitro antibacterial activity (MIC), agar dilution on Brain Heart Infusion (BHI) agar with Steers replicator
Assay type: cell-based
Conditions: unit assumed
Method in brief: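 Agar dilution MIC: twelve successive compound dilutions in BHI agar, spot-inoculated with 1:100 (1:10 for slow growers) organism dilutions by Steers replicator, incubated 35-37° C for 20-24 h. MIC is lowest concentration showing no growth, slight haze or sparse colonies versus drug-free control; erythromycin A as class reference.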

With `CC[C@H]1OC(=O)[C@H](C)C(=O)[C@H](C)[C@@H](O[C@@H]2O[C@H](C)C[C@H](N(C)C)[C@H]2O)[C@@](C)(OCC=NOCc2ccc3ncccc3c2)C[C@@H](C)C(=O)[C@H](C)[C@H]2NC(=O)O[C@@]21C` [Example 234, Compound of Formula (IX): L is CO, T is NH, R is —CH2CH═NOCH2(6-quinolyl)] as the compound, how does the MIC (organism code AA) read?
Its MIC is 0.1 µg/mL.

What about the MIC (organism code BB) of the same compound?
The MIC was 0.1 µg/mL.

What about the MIC (organism code CC) of the same compound?
The MIC was > 100 µg/mL.

And the MIC (organism code DD)?
Its MIC is 0.2 µg/mL.

What about the MIC (organism code EE) of the same compound?
The MIC was 0.2 µg/mL.

And the MIC (organism code FF)?
Its MIC is 0.1 µg/mL.

And the MIC (organism code GG)?
Its MIC is > 100 µg/mL.

What about the MIC (organism code HH) of the same compound?
The MIC was 0.1 µg/mL.

What about the MIC (organism code II) of the same compound?
Its MIC is 0.05 µg/mL.

And the MIC (organism code JJ)?
The MIC was ≤ 0.005 µg/mL.

What about the MIC (organism code KK) of the same compound?
The MIC was 0.05 µg/mL.

What about the MIC (organism code LL) of the same compound?
The MIC was 0.01 µg/mL.

And the MIC (organism code MM)?
Its MIC is 100 µg/mL.

What about the MIC (organism code NN) of the same compound?
The MIC was 0.2 µg/mL.

And the MIC (organism code OO)?
Its MIC is 0.01 µg/mL.

What about the MIC (organism code PP) of the same compound?
The MIC was 0.1 µg/mL.

What about the MIC (organism code QQ) of the same compound?
The MIC was 50 µg/mL.

What about the MIC (organism code RR) of the same compound?
The MIC was 0.39 µg/mL.

What about the MIC (organism code SS) of the same compound?
Its MIC is 50 µg/mL.

What about the MIC (organism code TT) of the same compound?
Its MIC is > 100 µg/mL.

And the MIC (organism code UU)?
The MIC was 0.78 µg/mL.

What about the MIC (organism code VV) of the same compound?
Its MIC is 0.1 µg/mL.

And the MIC (organism code WW)?
Its MIC is 2 µg/mL.

What about the MIC (organism code XX) of the same compound?
The MIC was 0.03 µg/mL.

And the MIC (organism code YY)?
Its MIC is 0.03 µg/mL.

And the MIC (organism code ZZ)?
The MIC was > 128 µg/mL.

And the MIC (organism code ZZA)?
Its MIC is 0.25 µg/mL.

Which results are given for `CCC1OC(=O)C(C)C(=O)C(C)C(OC2OC(C)CC(N(C)C)C2O)C(C)(OCC=Cc2cnc3ccc(F)cc3c2)CC(C)C(=O)C(C)C2NC(=O)OC12C` (centres unmarked) [Example 215, R is —CH2CH═CH-(6-fluoro-3-quinolyl)]?
MIC (organism code AA): 0.05 µg/mL (≈ 0.0638 µM); MIC (organism code BB): 0.1 µg/mL (≈ 0.128 µM); MIC (organism code CC): > 100 µg/mL; MIC (organism code DD): 0.1 µg/mL (≈ 0.128 µM); MIC (organism code EE): 0.1 µg/mL (≈ 0.128 µM); MIC (organism code FF): 0.1 µg/mL (≈ 0.128 µM); MIC (organism code GG): > 100 µg/mL; MIC (organism code HH): 0.1 µg/mL (≈ 0.128 µM); MIC (organism code II): 0.05 µg/mL (≈ 0.0638 µM); MIC (organism code JJ): 0.01 µg/mL (≈ 0.0128 µM); MIC (organism code KK): 0.01 µg/mL (≈ 0.0128 µM); MIC (organism code LL): 0.01 µg/mL (≈ 0.0128 µM); MIC (organism code MM): 0.78 µg/mL (≈ 0.995 µM); MIC (organism code NN): 0.1 µg/mL (≈ 0.128 µM); MIC (organism code OO): 0.01 µg/mL (≈ 0.0128 µM); MIC (organism code PP): 0.2 µg/mL (≈ 0.255 µM); MIC (organism code QQ): 25 µg/mL (≈ 31.9 µM); MIC (organism code RR): 0.2 µg/mL (≈ 0.255 µM); MIC (organism code SS): > 100 µg/mL; MIC (organism code TT): > 100 µg/mL; MIC (organism code UU): 0.78 µg/mL (≈ 0.995 µM); MIC (organism code VV): 0.02 µg/mL (≈ 0.0255 µM); MIC (organism code WW): 2 µg/mL (≈ 2.55 µM); MIC (organism code XX): 0.015 µg/mL (≈ 0.0191 µM); MIC (organism code YY): ≤ 0.004 µg/mL; MIC (organism code ZZ): 16 µg/mL (≈ 20.4 µM); MIC (organism code ZZA): 0.25 µg/mL (≈ 0.319 µM)

What does the source list for `CC[C@H]1OC(=O)[C@H](C)C(=O)[C@H](C)[C@@H](O[C@@H]2O[C@H](C)C[C@H](N(C)C)[C@H]2O)[C@@](C)(OCCNCCCc2cnc3ccccc3c2)C[C@@H](C)C(=O)[C@H](C)[C@H]2NC(=O)O[C@@]21C` [Example 225, Compound of Formula (IX): L is CO, T is NH, R is —CH2CH2NHCH2CH2CH2-(3-quinolyl)]?
MIC (organism code AA): 0.2 µg/mL; MIC (organism code BB): 0.39 µg/mL; MIC (organism code CC): > 100 µg/mL; MIC (organism code DD): 0.39 µg/mL; MIC (organism code EE): 0.39 µg/mL; MIC (organism code FF): 0.1 µg/mL; MIC (organism code GG): > 100 µg/mL; MIC (organism code HH): 0.2 µg/mL; MIC (organism code II): 0.05 µg/mL; MIC (organism code JJ): 0.01 µg/mL; MIC (organism code KK): 0.01 µg/mL; MIC (organism code LL): 0.01 µg/mL; MIC (organism code MM): > 100 µg/mL; MIC (organism code NN): 0.39 µg/mL; MIC (organism code OO): 0.02 µg/mL; MIC (organism code PP): 0.1 µg/mL; MIC (organism code QQ): 12.5 µg/mL; MIC (organism code RR): 0.1 µg/mL; MIC (organism code SS): 12.5 µg/mL; MIC (organism code TT): > 100 µg/mL; MIC (organism code UU): 3.1 µg/mL; MIC (organism code VV): 0.2 µg/mL; MIC (organism code WW): 4 µg/mL; MIC (organism code XX): 0.03 µg/mL; MIC (organism code YY): 0.06 µg/mL; MIC (organism code ZZ): > 128 µg/mL; MIC (organism code ZZA): 2 µg/mL

With `C=CCOC1(C)CC(C)C(=O)C(C)C(O)C(C)(O)C(CC)OC(=O)C(C)C(=O)C(C)C1OC1OC(C)CC(N(C)C)C1O` (centres unmarked) [Example 1, Compound of Formula (VIII): X is O, R is allyl] as the compound, how does the MIC (Candida albicans CCH 442 (code TT)) read?
Its MIC is > 100 µg/mL.

What about the MIC (Enterococcus faecism ATCC 8043 (code II)) of the same compound?
Its MIC is 12.5 µg/mL.

What about the MIC (Escherichia coli DC-2 (code SS)) of the same compound?
The MIC was > 100 µg/mL.

What about the MIC (Escherichia coli JUHL (code QQ)) of the same compound?
The MIC was > 100 µg/mL.

And the MIC (Escherichia coli SS (code RR))?
Its MIC is 12.5 µg/mL.

And the MIC (Haemophilis influenzae DILL AMP R (code WW))?
The MIC was > 128 µg/mL.

And the MIC (Micrococcus luteus ATCC 4698 (code PP))?
The MIC was 6.2 µg/mL.

What about the MIC (Micrococcus luteus ATCC 9341 (code OO)) of the same compound?
Its MIC is 3.1 µg/mL.

And the MIC (Mycobacterium smegmatis ATCC 114 (code UU))?
Its MIC is > 100 µg/mL.

And the MIC (Nocardia Asteroides ATCC9970 (code VV))?
The MIC was 6.3 µg/mL.

And the MIC (Staphylococcus aureus 1775 (code GG))?
The MIC was > 100 µg/mL.

And the MIC (Staphylococcus aureus A5177 (code BB))?
The MIC was 50 µg/mL.

What about the MIC (Staphylococcus aureus A-5278 (code CC)) of the same compound?
Its MIC is > 100 µg/mL.

What about the MIC (Staphylococcus aureus ATCC 6538P (code AA)) of the same compound?
Its MIC is 12.5 µg/mL.

And the MIC (Staphylococcus aureus CMX 553 (code FF))?
The MIC was 25 µg/mL.

What about the MIC (Staphylococcus aureus CMX 642A (code DD)) of the same compound?
Its MIC is 50 µg/mL.

And the MIC (Staphylococcus aureus NCTC10649M (code EE))?
The MIC was 6.2 µg/mL.

What about the MIC (Staphylococcus epidermidis 3519 (code HH)) of the same compound?
Its MIC is 50 µg/mL.

And the MIC (Streptococcus Pneumonia 5649 (code ZZA))?
The MIC was 8 µg/mL.

What about the MIC (Streptococcus Pneumonia 5979 (code ZZ)) of the same compound?
The MIC was > 128 µg/mL.

And the MIC (Streptococcus Pneumonia ATCC6303 (code XX))?
The MIC was 4 µg/mL.

And the MIC (Streptococcus Pneumonia GYR 1171 (code YY))?
The MIC was 4 µg/mL.

And the MIC (Streptococcus agalactiae CMX 508 (code KK))?
The MIC was 6.2 µg/mL.

What about the MIC (Streptococcus bovis A-5169 (code JJ)) of the same compound?
Its MIC is 25 µg/mL.

And the MIC (Streptococcus pyogenes 930 (code MM))?
Its MIC is > 100 µg/mL.

What about the MIC (Streptococcus pyogenes PIU 2548 (code NN)) of the same compound?
Its MIC is 12.5 µg/mL.

Reference: patent USRE39591E1, “6-O-substituted ketolides having antibacterial activity” (Abbott Laboratories, priority 1996, dated 2007)
